Tested on: 885724-159-R-J1-PDC complex spheroid viability
Experiment: Anticancer human tumor 885724-159-R-J1-PDC patient-derived pancreatic adenocarcinoma cell line growth inhibition [POLQ]
Conditions: for IC50: curve of first compound; for viability, T/C: stronger effect = lower value; active means viability on the fitted dose curve at most 10% of control; inactive means the rest
Method in brief: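 Three-cell-type spheroids modelling solid tumor plus stroma served as the readout system; POL inhibitors were tested individually and in combination, concentration ranges set by clinical Cmax where known.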

[1] = second compound 0.0316 µM, first compound 0.0316 µM
[2] = second compound 0.0316 µM, first compound 0.1 µM
[3] = second compound 0.0316 µM, first compound 0.316 µM
[4] = second compound 0.0316 µM, first compound 1 µM
[5] = second compound 0.0316 µM, first compound 3.16 µM
[6] = second compound 0.0316 µM, first compound 10 µM
[7] = second compound 0.1 µM, first compound 0.0316 µM
[8] = second compound 0.1 µM, first compound 0.1 µM
[9] = second compound 0.1 µM, first compound 0.316 µM
[10] = second compound 0.1 µM, first compound 1 µM
[11] = second compound 0.1 µM, first compound 3.16 µM
[12] = second compound 0.1 µM, first compound 10 µM
[13] = second compound 0.316 µM, first compound 0.0316 µM
[14] = second compound 0.316 µM, first compound 0.1 µM
[15] = second compound 0.316 µM, first compound 0.316 µM
[16] = second compound 0.316 µM, first compound 1 µM
[17] = second compound 0.316 µM, first compound 3.16 µM
[18] = second compound 0.316 µM, first compound 10 µM
[19] = second compound 1 µM, first compound 0.0316 µM
[20] = second compound 1 µM, first compound 0.1 µM
[21] = second compound 1 µM, first compound 0.316 µM
[22] = second compound 1 µM, first compound 1 µM
[23] = second compound 1 µM, first compound 3.16 µM
[24] = second compound 1 µM, first compound 10 µM
[25] = second compound 3.16 µM, first compound 0.0316 µM
[26] = second compound 3.16 µM, first compound 0.1 µM
[27] = second compound 3.16 µM, first compound 0.316 µM
[28] = second compound 3.16 µM, first compound 1 µM
[29] = second compound 3.16 µM, first compound 3.16 µM
[30] = second compound 3.16 µM, first compound 10 µM
[31] = second compound 10 µM, first compound 0.0316 µM
[32] = second compound 10 µM, first compound 0.1 µM
[33] = second compound 10 µM, first compound 0.316 µM
[34] = second compound 10 µM, first compound 1 µM
[35] = second compound 10 µM, first compound 3.16 µM
[36] = second compound 10 µM, first compound 10 µM
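Further: spheroids exposed to compounds for 7 days.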

COc1cc(C2c3cc4c(cc3C(OC3OC5COC(C)OC5C(O)C3O)C3COC(=O)C23)OCO4)cc(OC)c1O (stereo unspecified) + Cc1cccc(N(C)C(=O)C2C(O)CCN2c2nc(C)cc(C(F)(F)F)c2C#N)c1
9.11 µM: IC50 (second compound 0.1 µM)
8.12 µM: IC50 (second compound 0.0316 µM)
inactive: viability, T/C [1] 101% | viability, T/C [2] 90.2% | viability, T/C [3] 80.7% | viability, T/C [4] 75% | viability, T/C [5] 57.7% | viability, T/C [6] 48.1% | viability, T/C [7] 94.7% | viability, T/C [8] 86.1% | viability, T/C [9] 79.5% | viability, T/C [10] 73.4% | viability, T/C [11] 63.2% | viability, T/C [12] 47.5% | viability, T/C [13] 95.4% | viability, T/C [14] 99.8% | viability, T/C [15] 74.6% | viability, T/C [16] 71% | viability, T/C [17] 58.2% | viability, T/C [18] 48.4% | viability, T/C [19] 100% | viability, T/C [20] 79.3% | viability, T/C [21] 74% | viability, T/C [22] 71% | viability, T/C [23] 55.7% | viability, T/C [24] 45.4% | viability, T/C [25] 98.1% | viability, T/C [26] 96.9% | viability, T/C [27] 76.2% | viability, T/C [28] 67.3% | viability, T/C [29] 58.6% | viability, T/C [30] 45.9% | viability, T/C [31] 95.9% | viability, T/C [32] 80% | viability, T/C [33] 74.9% | viability, T/C [34] 62.6% | viability, T/C [35] 58.2% | viability, T/C [36] 44.2%
6.05 µM: IC50 (second compound 10 µM)
9.09 µM: IC50 (second compound 0.316 µM)
6.86 µM: IC50 (second compound 1 µM) | IC50 (second compound 3.16 µM)

COc1cccc2c1C(=O)c1c(O)c3c(c(O)c1C2=O)CC(O)(C(=O)CO)CC3OC1CC(N)C(O)C(C)O1 (stereo unspecified) + Cc1cccc(N(C)C(=O)C2C(O)CCN2c2nc(C)cc(C(F)(F)F)c2C#N)c1
0.142 µM: IC50 (second compound 0.0316 µM)
0.124 µM: IC50 (second compound 10 µM)
0.139 µM: IC50 (second compound 0.316 µM)
0.112 µM: IC50 (second compound 1 µM)
active: viability, T/C [5] 5.41% | viability, T/C [6] 6.51% | viability, T/C [11] 5.56% | viability, T/C [12] 8.59% | viability, T/C [17] 5.71% | viability, T/C [18] 9.04% | viability, T/C [23] 5.49% | viability, T/C [24] 6.59% | viability, T/C [29] 6.53% | viability, T/C [30] 6.91% | viability, T/C [34] 2.58% | viability, T/C [35] 4.96% | viability, T/C [36] 6.82%
0.117 µM: IC50 (second compound 3.16 µM)
inactive: viability, T/C [1] 72.8% | viability, T/C [2] 57.1% | viability, T/C [3] 32.5% | viability, T/C [4] 11.3% | viability, T/C [7] 67.6% | viability, T/C [8] 55.5% | viability, T/C [9] 34.5% | viability, T/C [10] 11.9% | viability, T/C [13] 80.8% | viability, T/C [14] 57.1% | viability, T/C [15] 31% | viability, T/C [16] 8.3% | viability, T/C [19] 75.3% | viability, T/C [20] 51% | viability, T/C [21] 30.4% | viability, T/C [22] 10.5% | viability, T/C [25] 75.5% | viability, T/C [26] 51.7% | viability, T/C [27] 30.3% | viability, T/C [28] 5.5% | viability, T/C [31] 72.7% | viability, T/C [32] 55.6% | viability, T/C [33] 22.9%
0.14 µM: IC50 (second compound 0.1 µM)

O=c1[nH]cc(F)c(=O)[nH]1 + Cc1cccc(N(C)C(=O)C2C(O)CCN2c2nc(C)cc(C(F)(F)F)c2C#N)c1
inactive: viability, T/C [1] 98.5% | viability, T/C [2] 101% | viability, T/C [3] 95.8% | viability, T/C [4] 100% | viability, T/C [5] 90.2% | viability, T/C [6] 76.4% | viability, T/C [7] 97.7% | viability, T/C [8] 104% | viability, T/C [9] 98.7% | viability, T/C [10] 106% | viability, T/C [11] 90% | viability, T/C [12] 74.7% | viability, T/C [13] 98.7% | viability, T/C [14] 88.6% | viability, T/C [15] 97.5% | viability, T/C [16] 99% | viability, T/C [17] 87.5% | viability, T/C [18] 71.9% | viability, T/C [19] 111% | viability, T/C [20] 107% | viability, T/C [21] 101% | viability, T/C [22] 98.2% | viability, T/C [23] 92% | viability, T/C [24] 76.7% | viability, T/C [25] 114% | viability, T/C [26] 96.2% | viability, T/C [27] 88% | viability, T/C [28] 100% | viability, T/C [29] 87.3% | viability, T/C [30] 71.7% | viability, T/C [31] 99% | viability, T/C [32] 101% | viability, T/C [33] 89.8% | viability, T/C [34] 89.4% | viability, T/C [35] 92.9% | viability, T/C [36] 78.6%
> 10 µM: IC50 (second compound 0.0316 µM) | IC50 (second compound 0.1 µM) | IC50 (second compound 0.316 µM) | IC50 (second compound 1 µM) | IC50 (second compound 3.16 µM) | IC50 (second compound 10 µM)

— PubChem BioAssay AID1963832 (Molecular Pharmacology Branch, DTP, NCI, 2024)
